Results: patent US8147838B2, “Peptide” (priority 2005, dated 2012)
No end group written: not given here.

How the values were obtained:
[1] = molecular target: MHC class I allele A*0301 (A3) (Homo sapiens, UniProt P04439); assay: iScore multi-parametric analysis, A*0301; format: binding; conditions: for iScore, MHC Class I Molecule A*0301: level of binding: >0.5, 0.25-0.5, <0.25
Procedure: (§1) Finally, multiparametric analysis is performed on the results from these assays and an iScore is generated. The iScore represents a measure of the overall quality of peptide-MHC binding, enabling candidate peptides to be ranked in order of binding quality and allowing rational prioritisation of peptides for functional cellular follow-up studies.
(§2) As part of the validation of the iTopia system, a panel of overlapping peptides derived from the CMV pp 65 protein were used and their binding properties for the A*0201 allele analysed. A number of T cell epitopes restricted by HLA A*0201 had already been identified (by more conventional methodologies) by other researchers for this protein. In the iTopia study, it was reported that an iScore of: >0.5 represented “good quality binding”; between 0.25 and 0.5 represented “medium quality binding”; and <0.25 represented “poor quality binding”. Six of the 20 peptides which gave a “good” iScore (>0.5) for A*0201, represented previously characterised CMV pp 65 A*0201 epitopes.
(§3) Each MHC class I allele has different binding properties and affinities for peptides which they bind. Therefore, information obtained with HLA A*0201 in which peptides are ranked as good, medium or poor binders using >0.5, 0.25-0.5 and <0.25 as thresholds is not necessarily transferable between alleles. Also, different proteins are likely to have distinct immunogenic profiles and the affinities between peptides and MHC class I molecules will be different between proteins. This may be particularly relevant in the case of self-antigens where immunogenicity is likely to be lower than in foreign proteins.
(§4) Multi-parametric analysis permits the integration of half-life and ED50 parameters in an integrated iScore. This reflects the capability of a peptide to reconstitute with MHC molecules in a stable complex, defining its overall level of binding i.e. the iScore value represents the overall quality of peptide-MHC binding and is used to rank candidate peptides as an indicator of functional relevance. The lead candidate epitopes for each allele are selected for cellular functional analysis to confirm their biological relevance.
(§5) The changes in gradient of the graphs in FIGS. 7 to 10 are indicated by a line which delineates the populations of iScores forming the basis of discrimination for further functional studies.

[2] = molecular target: MHC class I allele B*0702 (B7) (Homo sapiens, UniProt P01889); assay: iScore multi-parametric analysis, B*0702; conditions: level of binding: >0.5, 0.25-0.5, <0.25
Procedure: as §1
As part of the validation of the iTopia system, a panel of overlapping peptides derived from the CMV pp 65 protein were used and their binding properties for the A*0201 allele analysed. A number of T cell epitopes restricted by HLA A*0201 had already been identified (by more conventional methodologies) by other researchers for this protein. In the iTopia study, it was reported that an iScore of: >0.5 represented “good quality binding”; between 0.25 and 0.5 represented “medium quality binding”; and <0.25 represented “poor quality binding”.
as §4

[3] = molecular target: MHC class I allele A*0101 (A1) (Homo sapiens, UniProt P04439, A114D/A174V/A182V/D101N/D185E/E176A/E190D/L180R/Q94H/R68K/S129P/T187R/V100A/V91M/W191G); assay: iScore multi-parametric analysis, A*0101; format: binding; conditions: for iScore, MHC Class I Molecule A*0101: level of binding: >0.5, 0.25-0.5, <0.25
Procedure: as §1, §2, §3, §4, §5

[4] = molecular target: MHC class I allele A*0201 (A2) (Homo sapiens, UniProt P04439, D140Y/D185E/D98H/E176V/E277Q/G131W/G231S/I119V/I121R/I166T/I218V/L300P/L318F/N151K/N90K/P208A/P217A/Q86G/Q94H/R138H/R169H/T345S); assay: iScore multi-parametric analysis, A*0201; format: binding; conditions: level of binding: >0.5, 0.25-0.5, <0.25
Procedure: as §1, §2, §3, §4, §5

Sequence	iScore, MHC Class I Molecule A*0301 [1]	iScore, MHC Class I Molecule B*0702 [2]	iScore, MHC Class I Molecule A*0101 [3]	iScore, MHC Class I Molecule A*0201 [4]	iScore (iTopia), A*0301 ([1]; integrates half-life and ED50)	iScore (iTopia), A*0101 ([3]; integrates half-life and ED50)
IKKWMHNIR [Peptide 191]	0	0	0	0.181		
ILNHIVPPE [Peptide 90]	0	0	0	0.426		
ILPPSLQTS [Peptide 174]	0	0	0	0.523		
KVLHNGTLA [Peptide 136]	0	0	0	0.15		
KWMHNIRDA [Peptide 192]	0	0	0	0.045		
LAELAALNL [Peptide 59]	0	0.074	0	0.72		
LALIGAIFL [Peptide 182]	0	0.067	0	0.425		
LALVLLGWV [Peptide 11]	0	0	0	0.237		
LASNHFLYL [Peptide 109]	0.224	0	0.12	0.337	0.224	0.12
LAVLPAGAF [Peptide 52]	0	0.049	0	0.074		
LDLSHNPLA [Peptide 74]	0	0	0	0.226		
LDLSNNSLV [Peptide 120]	0	0	0	0.158		
LEDNALKVL [Peptide 133]	0	0	0	0.122		
LELASNHFL [Peptide 108]	0	0	0	0.151		
LHNGTLAEL [Peptide 137]	0	0.026	0	0.187		
LLAGRALQG [Peptide 102]	0	0	0	0.176		
LLGWVSSSS [Peptide 13]	0	0	0	0.243		
LPRDVLAQL [Peptide 113]	0	0.305	0	0		
LQGLPHIRV [Peptide 141]	0	0	0	0.2		
LQGLRRLEL [Peptide 105]	0	0.119	0	0.114		

Sequence	iScore, MHC Class I Molecule A*0301 [1]	iScore, MHC Class I Molecule B*0702 [2]	iScore, MHC Class I Molecule A*0101 [3]	iScore, MHC Class I Molecule A*0201 [4]	iScore (iTopia), A*0301 ([1]; integrates half-life and ED50)	iScore (iTopia), A*0101 ([3]; integrates half-life and ED50)
LSGSRLDEV [Peptide 63]	0	0.107	0	0.075		
LSHNPLADL [Peptide 75]	0	0	0	0.095		
LSNNSLVSL [Peptide 121]	0	0.112	0	0.116		
LSPFAFSGS [Peptide 79]	0	0	0	0.064		
LTHLESLHL [Peptide 129]	0	0	0	0.143		
LTNLSSNSD [Peptide 206]	0	0	0	0.027		
LVELILNHI [Peptide 88]	0	0	0	0.109		
LVLLGWVSS [Peptide 12]	0	0	0	0.122		
LYLPRDVLA [Peptide 112]	0	0	0	0.218		
MHNIRDACR [Peptide 193]	0	0	0	0.093		
MVTWLKETE [Peptide 153]	0	0	0	0.051		
NQLAVLPAG [Peptide 51]	0	0	0	0.22		
NRKGIKKWM [Peptide 189]	0	0	0	0.138		
NRVLLELNS [Peptide 166]	0	0	0	0.031		
PLPDQCPAL [Peptide 29, PLPDQCPAL]	0	0	0	0.088		
PPLAELAAL [Peptide 58, PPLAELAAL]	0	0.145	0	0.075		
PPSLQTSYV [Peptide 175]	0	0	0	0.145		
QNRSFEGMV [Peptide 96]	0	0	0	0.052		
QTSYVFLGI [Peptide 177]	0	0	0.027	0.127		
RALQGLRRL [Peptide 104]	0.027	0.078	0	0.168		
